For orientation: IC50 means the concentration that inhibits the measured activity by half.

Where a name gives a salt, the structure may show the parent alone.

The values that follow come from patent US12247011B2, “Selective inhibitors of NLRP3 inflammasome” (NodThera Limited, priority 2017, dated 2025).

The subject of the first test is IL-1β release upon NLRP3 activation in peripheral blood mononuclear cells (PBMC). The experiment in a line: PBMC IC50 Determination Assay. It counts as cell-based. As to conditions: Homo sapiens, PBMC, read-out: PBMC IC50.
In the case of `CN(C)Cc1cnn(C[C@@H](OC(=O)Nc2c3c(cc4c2CCC4)CCC3)C(=O)O)c1` [Compound 98, (2R)-3-{4-[(dimethylamino)methyl]-1H-pyrazol-1-yl}-2-{[(1,2,3,5,6,7-hexahydro-s-indacen-4-yl)carbamoyl]oxy}propanoic acid hydrochloride], the IC50 is 1000 to 10000 nM.

Staying with this test, now noted: Homo sapiens; LPS-primed PBMC, 30 min compound, stimulated with ATP (5 mM) or nigericin (10 μM) for 1 h; IL-1β ELISA; read-out: PBMC IC50.
Take `CCOC(=O)C(Cn1cccn1)OC(=O)Nc1c(C)csc1C` (stereo not drawn) [Compound 99, Ethyl 2-{[(2,4-dimethylthiophen-3-yl)carbamoyl]oxy}-3-(1H-pyrazol-1-yl)propanoate]: the IC50 lay within 100 to 1000 nM.

Turning to `CCOC(=O)C(Cn1cccn1)OC(=O)Nc1c2c(cc3c1OCC3)OCC2` (stereo not drawn) [Compound 100, Ethyl 2-[({4,10-dioxatricyclo[7.3.0.0^3,7]dodeca-1,3(7),8-trien-2-yl}carbamoyl)oxy]-3-(1H-pyrazol-1-yl)propanoate], the 50% inhibitory concentration (IC50) is 1000 to 10000 nM.

Take `CCOC(=O)[C@@H](COCCOC)OC(=O)Nc1c2c(cc3c1CCC3)CCC2` [Compound 101, Ethyl (2R)-2-{[(1,2,3,5,6,7-hexahydro-indacen-4-yl)carbamoyl]oxy}-3-(2-methoxyethoxy)propanoate]: the IC50 was in the range of 100 to 1000 nM.

Consider `CCOC(=O)[C@@H](COC1CCOCC1)OC(=O)Nc1c2c(cc3c1CCC3)CCC2` [Compound 102, Ethyl (2R)-2-{[(1,2,3,5,6,7-hexahydro-s-indacen-4-yl)carbamoyl]oxy}-3-(oxan-4-yloxy)propanoate], for which the IC50 lay within 100 to 1000 nM.

As to `CCOC(=O)[C@@H](Cn1ncnc1C)OC(=O)Nc1c2c(cc3c1CCC3)CCC2` [Compound 103, Ethyl (2R)-2-{[(1,2,3,5,6,7-hexahydro-s-indacen-4-yl)carbamoyl]oxy}-3-(5-methyl-1H-1,2,4-triazol-1-yl)propanoate], the 50% inhibitory concentration (IC50) was in the range of 10 to 100 nM.

As for `CCOC(=O)[C@@H](COC(C)C)OC(=O)Nc1c2c(cc3c1CCC3)CCC2` [Compound 104, Ethyl (2R)-2-{[(1,2,3,5,6,7-hexahydro-s-indacen-4-yl)carbamoyl]oxy}-3-(propan-2-yloxy)propanoate], the IC50 was in the range of 1000 to 10000 nM.

In the case of `CCOC(=O)[C@@H](Cn1cnc(C)n1)OC(=O)Nc1c2c(cc3c1CCC3)CCC2` [Compound 105, Ethyl (2R)-2-{[(1,2,3,5,6,7-hexahydro-s-indacen-4-yl)carbamoyl]oxy}-3-(3-methyl-1H-1,2,4-triazol-1-yl)propanoate], the IC50 is 10 to 100 nM.

Consider `O=C(Nc1c2c(cc3c1CCC3)CCC2)O[C@H](Cc1ncccn1)C(=O)O` [Compound 106, (2R)-2-{[(1,2,3,5,6,7-hexahydro-s-indacen-4-yl)carbamoyl]oxy}-3-(pyrimidin-2-yl)propanoic acid], for which the IC50 is 100 to 1000 nM.

Consider `O=C(Nc1c2c(cc3c1CCC3)CCC2)O[C@H](Cc1cnccn1)C(=O)O` [Compound 109, (2R)-2-{[(1,2,3,5,6,7-hexahydro-s-indacen-4-yl)carbamoyl]oxy}-3-(pyrazin-2-yl)propanoic acid], for which the IC50 lay within 100 to 1000 nM.

Turning to `O=C(Nc1c2c(cc3c1CCC3)CCC2)O[C@H](Cc1cnccn1)C(=O)OC1CCCC1` [Compound 111, Cyclopentyl (2R)-2-{[(1,2,3,5,6,7-hexahydro-s-indacen-4-yl)carbamoyl]oxy}-3-(pyrazin-2-yl)propanoate], the IC50 is below 10 nM.

As for `N#Cc1cnn(C[C@@H](OC(=O)Nc2c3c(cc4c2CCC4)CCC3)C(=O)OC2CCCC2)c1` [Compound 113, Cyclopentyl (2R)-3-(4-cyano-1H-pyrazol-1-yl)-2-{[(1,2,3,5,6,7-hexahydro-s-indacen-4-yl)carbamoyl]oxy}propanoate], the IC50 is below 10 nM.

For `O=C(Nc1c2c(cc3c1CCC3)CCC2)O[C@H](Cn1cncn1)C(=O)O` [Compound 114, (2R)-2-{[(1,2,3,5,6,7-hexahydro-s-indacen-4-yl)carbamoyl]oxy}-3-(1H-1,2,4-triazol-1-yl)propanoic acid], the IC50 fell in the range of 100 to 1000 nM.

As for `O=C(Nc1c2c(cc3c1CCC3)CCC2)O[C@H](Cn1cncn1)C(=O)OC1CCCC1` [Compound 116, Cyclopentyl (2R)-2-{[(1,2,3,5,6,7-hexahydro-s-indacen-4-yl)carbamoyl]oxy}-3-(1H-1,2,4-triazol-1-yl)propanoate], the IC50 is below 10 nM.

Turning to `Cc1cncc(CC(OC(=O)Nc2c3c(cc4c2CCC4)CCC3)C(=O)OC(C)C)n1` (stereo not drawn) [Compound 117, Propan-2-yl 2-{[(1,2,3,5,6,7-hexahydro-s-indacen-4-yl)carbamoyl]oxy}-3-(6-methylpyrazin-2-yl)propanoate], the IC50 was below 10 nM.

For `CC1CCCC(NC(=O)OC(Cc2ncccn2)C(=O)OC(C)C)C1` (stereo not drawn) [Compound 118, Propan-2-yl 2-{[(3-methylcyclohexyl)carbamoyl]oxy}-3-(pyrimidin-2-yl)propanoate], the IC50 is 1000 to 10000 nM.

As to `CC(C)OC(=O)C(Cc1cnc(C#N)cn1)OC(=O)Nc1c2c(cc3c1CCC3)CCC2` (stereo not drawn) [Compound 119, Propan-2-yl 3-(5-cyanopyrazin-2-yl)-2-{[(1,2,3,5,6,7-hexahydro-s-indacen-4-yl)carbamoyl]oxy}propanoate], the IC50 is below 10 nM.

On to `Cc1nccc(CC(OC(=O)Nc2c3c(cc4c2CCC4)CCC3)C(=O)OC(C)C)n1` (stereo not drawn) [Compound 120, Propan-2-yl 2-{[(1,2,3,5,6,7-hexahydro-s-indacen-4-yl)carbamoyl]oxy}-3-(2-methylpyrimidin-4-yl)propanoate], for which the IC50 lay in the range of 10 to 100 nM.

With `Cc1cnc(CC(OC(=O)Nc2c3c(cc4c2CCC4)CCC3)C(=O)OC(C)C)cn1` (stereo not drawn) [Compound 121, Propan-2-yl 2-{[(1,2,3,5,6,7-hexahydro-s-indacen-4-yl)carbamoyl]oxy}-3-(5-methylpyrazin-2-yl)propanoate], the IC50 was 10 to 100 nM.

As for `CC(C)OC(=O)C(Cc1ncccn1)OC(=O)NC1(C)CCCCC1` (stereo not drawn) [Compound 122, Propan-2-yl 2-{[(1-methylcyclohexyl)carbamoyl]oxy}-3-(pyrimidin-2-yl)propanoate], the IC50 is above 10000 nM.

Consider `CC(C)OC(=O)C(Cc1ncccn1)OC(=O)Nc1c(F)cccc1Cl` (stereo not drawn) [Compound 123, Propan-2-yl 2-{[(2-chloro-6-fluorophenyl)carbamoyl]oxy}-3-(pyrimidin-2-yl)propanoate], for which the IC50 was in the range of 100 to 1000 nM.

As for `CC(C)OC(=O)C(Cc1ncccn1)OC(=O)Nc1c(F)cccc1F` (stereo not drawn) [Compound 124, Propan-2-yl 2-{[(2,6-difluorophenyl)carbamoyl]oxy}-3-(pyrimidin-2-yl)propanoate], the IC50 lay within 100 to 1000 nM.

As for `CC(C)OC(=O)C(Cc1ncccn1)OC(=O)Nc1c(Cl)cccc1Cl` (stereo not drawn) [Compound 125, Propan-2-yl 2-{[(2,6-dichlorophenyl)carbamoyl]oxy}-3-(pyrimidin-2-yl)propanoate], the IC50 was 1000 to 10000 nM.

With `CC(C)OC(=O)[C@@H](Cn1cnc(C#N)n1)OC(=O)Nc1c2c(cc3c1CCC3)CCC2` [Compound 126, Propan-2-yl (2R)-3-(3-cyano-1H-1,2,4-triazol-1-yl)-2-{[(1,2,3,5,6,7-hexahydro-s-indacen-4-yl)carbamoyl]oxy}propanoate], the concentration for half-maximal inhibition (IC50) was 10 to 100 nM.

For `CC(C)OC(=O)C(Cc1ncccn1)OC(=O)NC12CCC(CC1)CC2` (stereo not drawn) [Compound 127, Propan-2-yl 2-[({bicyclo[2.2.2]octan-1-yl}carbamoyl)oxy]-3-(pyrimidin-2-yl)propanoate], the IC50 was in the range of 1000 to 10000 nM.

As to `CC(C)OC(=O)C(Cc1ccnnc1)OC(=O)Nc1c2c(cc3c1CCC3)CCC2` (stereo not drawn) [Compound 128, Propan-2-yl 2-{[(1,2,3,5,6,7-hexahydro-s-indacen-4-yl)carbamoyl]oxy}-3-(pyridazin-4-yl)propanoate], the IC50 was 100 to 1000 nM.

In the case of `CC(C)OC(=O)C(Cc1ncc(C#N)cn1)OC(=O)Nc1c2c(cc3c1CCC3)CCC2` (stereo not drawn) [Compound 130, Propan-2-yl 3-(5-cyanopyrimidin-2-yl)-2-{[(1,2,3,5,6,7-hexahydro-s-indacen-4-yl)carbamoyl]oxy}propanoate], the IC50 is 10 to 100 nM.
